Measurements as given in patent US9079902B2, “Heteroaryl sodium channel inhibitors” (AMGEN INC., priority 2011, dated 2015).

Assays:
[1] = target: Nav 1.5 (Homo sapiens (Human), UniProt Q14524); experiment: Nav 1.5 in vitro assay (IonWorks Quattro population patch-clamp); type: cell-based; conditions: 293 cells stably transfected with Nav 1.5; 26th pulse to -20 mV, 5 Hz
Procedure: (§1) Nav 1.7 and Nav 1.5 In Vitro Assay
(§2) 293 cells stably transfected with either Nav 1.7 or with Nav 1.5 were recorded in population patch-clamp mode with the IonWorks® Quattro automated electrophysiology system in accordance with the manufacturer's specifications (Molecular Devices, LLC, Sunnyvale, Calif.). Sodium channel currents were measured in response to a train of depolarizations that induced successively greater inactivation.
(§3) Cells were held at −110 mV for three seconds (Nav 1.7) or half a second (Nav 1.5) from a holding voltage of −15 mV, then put through a series of 26 pulses of 150 msec duration to −20 mV at a frequency of 5 Hz. Cells were then left unclamped for a period of 3 to 8 minutes while a single concentration of test compound was added. Cells were then reclamped and put through the same voltage protocol. Current at the end of the 26th pulse to −20 mV was subtracted from the peak current evoked by the 26th pulse to −20 mV to correct for leak current. Percent block was calculated for each concentration in duplicate, and IC50 curves were fitted to percent block as a function of concentration.

[2] = target: Nav 1.7 (Homo sapiens (Human), UniProt Q15858); experiment: Nav 1.7 in vitro assay (IonWorks Quattro population patch-clamp); type: cell-based; conditions: 293 cells stably transfected with Nav 1.7; for inhibition at 4.9 µM: HEK293; for IC50: 26th pulse to -20 mV, 5 Hz
Sequence of Nav 1.7 (Q15858 whole entry): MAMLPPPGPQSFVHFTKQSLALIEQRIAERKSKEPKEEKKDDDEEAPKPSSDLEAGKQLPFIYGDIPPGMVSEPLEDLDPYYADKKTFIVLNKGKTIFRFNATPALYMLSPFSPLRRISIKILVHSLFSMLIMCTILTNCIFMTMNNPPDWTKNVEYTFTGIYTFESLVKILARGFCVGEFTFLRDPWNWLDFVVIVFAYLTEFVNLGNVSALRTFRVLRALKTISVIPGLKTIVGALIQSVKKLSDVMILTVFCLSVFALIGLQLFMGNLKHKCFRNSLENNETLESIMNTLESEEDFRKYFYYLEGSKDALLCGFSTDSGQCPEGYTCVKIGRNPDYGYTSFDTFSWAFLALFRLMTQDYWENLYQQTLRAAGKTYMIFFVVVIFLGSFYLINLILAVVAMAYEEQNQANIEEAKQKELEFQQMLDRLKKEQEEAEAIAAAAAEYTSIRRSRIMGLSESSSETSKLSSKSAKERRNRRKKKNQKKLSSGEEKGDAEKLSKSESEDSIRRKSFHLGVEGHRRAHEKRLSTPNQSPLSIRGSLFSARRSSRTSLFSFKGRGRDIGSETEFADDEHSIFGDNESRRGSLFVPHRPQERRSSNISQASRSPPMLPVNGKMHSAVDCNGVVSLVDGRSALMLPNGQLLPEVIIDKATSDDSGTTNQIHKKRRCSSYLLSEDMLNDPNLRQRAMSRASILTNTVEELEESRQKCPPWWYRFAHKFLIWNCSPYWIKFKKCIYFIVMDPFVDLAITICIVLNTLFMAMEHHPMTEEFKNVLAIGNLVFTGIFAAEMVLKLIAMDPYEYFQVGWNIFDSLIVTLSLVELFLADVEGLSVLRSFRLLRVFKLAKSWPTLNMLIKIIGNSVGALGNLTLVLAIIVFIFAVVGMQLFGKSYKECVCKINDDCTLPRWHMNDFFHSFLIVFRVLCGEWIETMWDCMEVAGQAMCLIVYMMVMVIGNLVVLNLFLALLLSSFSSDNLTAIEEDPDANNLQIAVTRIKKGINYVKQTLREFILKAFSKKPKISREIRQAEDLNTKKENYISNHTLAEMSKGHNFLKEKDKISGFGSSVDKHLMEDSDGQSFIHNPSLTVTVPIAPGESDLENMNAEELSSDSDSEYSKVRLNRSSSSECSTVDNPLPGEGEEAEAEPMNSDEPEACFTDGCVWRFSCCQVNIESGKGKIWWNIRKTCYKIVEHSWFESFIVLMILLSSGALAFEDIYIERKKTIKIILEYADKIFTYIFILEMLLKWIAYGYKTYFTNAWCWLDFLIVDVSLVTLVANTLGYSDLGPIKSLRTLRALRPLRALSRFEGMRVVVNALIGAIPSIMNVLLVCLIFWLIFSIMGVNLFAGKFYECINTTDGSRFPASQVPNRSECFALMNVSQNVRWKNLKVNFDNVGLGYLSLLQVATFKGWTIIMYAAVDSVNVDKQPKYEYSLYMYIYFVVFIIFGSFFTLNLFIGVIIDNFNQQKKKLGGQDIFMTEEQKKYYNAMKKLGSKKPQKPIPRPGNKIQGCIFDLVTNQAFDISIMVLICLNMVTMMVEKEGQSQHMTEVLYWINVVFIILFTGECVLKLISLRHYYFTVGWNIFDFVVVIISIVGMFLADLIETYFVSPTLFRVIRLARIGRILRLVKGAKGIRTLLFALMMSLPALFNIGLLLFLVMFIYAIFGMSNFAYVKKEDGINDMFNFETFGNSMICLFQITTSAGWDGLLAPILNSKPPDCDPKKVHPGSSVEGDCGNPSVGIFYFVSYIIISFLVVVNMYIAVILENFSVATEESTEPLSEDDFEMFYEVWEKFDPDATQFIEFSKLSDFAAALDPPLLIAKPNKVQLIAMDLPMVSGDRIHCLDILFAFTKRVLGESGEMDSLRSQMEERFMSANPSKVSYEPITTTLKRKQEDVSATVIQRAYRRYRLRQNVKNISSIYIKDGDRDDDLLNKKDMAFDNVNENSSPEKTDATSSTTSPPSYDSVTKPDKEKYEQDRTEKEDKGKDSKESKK
Procedure: as §1, §2, §3

Sequence of Nav 1.5 (Q14524 whole entry): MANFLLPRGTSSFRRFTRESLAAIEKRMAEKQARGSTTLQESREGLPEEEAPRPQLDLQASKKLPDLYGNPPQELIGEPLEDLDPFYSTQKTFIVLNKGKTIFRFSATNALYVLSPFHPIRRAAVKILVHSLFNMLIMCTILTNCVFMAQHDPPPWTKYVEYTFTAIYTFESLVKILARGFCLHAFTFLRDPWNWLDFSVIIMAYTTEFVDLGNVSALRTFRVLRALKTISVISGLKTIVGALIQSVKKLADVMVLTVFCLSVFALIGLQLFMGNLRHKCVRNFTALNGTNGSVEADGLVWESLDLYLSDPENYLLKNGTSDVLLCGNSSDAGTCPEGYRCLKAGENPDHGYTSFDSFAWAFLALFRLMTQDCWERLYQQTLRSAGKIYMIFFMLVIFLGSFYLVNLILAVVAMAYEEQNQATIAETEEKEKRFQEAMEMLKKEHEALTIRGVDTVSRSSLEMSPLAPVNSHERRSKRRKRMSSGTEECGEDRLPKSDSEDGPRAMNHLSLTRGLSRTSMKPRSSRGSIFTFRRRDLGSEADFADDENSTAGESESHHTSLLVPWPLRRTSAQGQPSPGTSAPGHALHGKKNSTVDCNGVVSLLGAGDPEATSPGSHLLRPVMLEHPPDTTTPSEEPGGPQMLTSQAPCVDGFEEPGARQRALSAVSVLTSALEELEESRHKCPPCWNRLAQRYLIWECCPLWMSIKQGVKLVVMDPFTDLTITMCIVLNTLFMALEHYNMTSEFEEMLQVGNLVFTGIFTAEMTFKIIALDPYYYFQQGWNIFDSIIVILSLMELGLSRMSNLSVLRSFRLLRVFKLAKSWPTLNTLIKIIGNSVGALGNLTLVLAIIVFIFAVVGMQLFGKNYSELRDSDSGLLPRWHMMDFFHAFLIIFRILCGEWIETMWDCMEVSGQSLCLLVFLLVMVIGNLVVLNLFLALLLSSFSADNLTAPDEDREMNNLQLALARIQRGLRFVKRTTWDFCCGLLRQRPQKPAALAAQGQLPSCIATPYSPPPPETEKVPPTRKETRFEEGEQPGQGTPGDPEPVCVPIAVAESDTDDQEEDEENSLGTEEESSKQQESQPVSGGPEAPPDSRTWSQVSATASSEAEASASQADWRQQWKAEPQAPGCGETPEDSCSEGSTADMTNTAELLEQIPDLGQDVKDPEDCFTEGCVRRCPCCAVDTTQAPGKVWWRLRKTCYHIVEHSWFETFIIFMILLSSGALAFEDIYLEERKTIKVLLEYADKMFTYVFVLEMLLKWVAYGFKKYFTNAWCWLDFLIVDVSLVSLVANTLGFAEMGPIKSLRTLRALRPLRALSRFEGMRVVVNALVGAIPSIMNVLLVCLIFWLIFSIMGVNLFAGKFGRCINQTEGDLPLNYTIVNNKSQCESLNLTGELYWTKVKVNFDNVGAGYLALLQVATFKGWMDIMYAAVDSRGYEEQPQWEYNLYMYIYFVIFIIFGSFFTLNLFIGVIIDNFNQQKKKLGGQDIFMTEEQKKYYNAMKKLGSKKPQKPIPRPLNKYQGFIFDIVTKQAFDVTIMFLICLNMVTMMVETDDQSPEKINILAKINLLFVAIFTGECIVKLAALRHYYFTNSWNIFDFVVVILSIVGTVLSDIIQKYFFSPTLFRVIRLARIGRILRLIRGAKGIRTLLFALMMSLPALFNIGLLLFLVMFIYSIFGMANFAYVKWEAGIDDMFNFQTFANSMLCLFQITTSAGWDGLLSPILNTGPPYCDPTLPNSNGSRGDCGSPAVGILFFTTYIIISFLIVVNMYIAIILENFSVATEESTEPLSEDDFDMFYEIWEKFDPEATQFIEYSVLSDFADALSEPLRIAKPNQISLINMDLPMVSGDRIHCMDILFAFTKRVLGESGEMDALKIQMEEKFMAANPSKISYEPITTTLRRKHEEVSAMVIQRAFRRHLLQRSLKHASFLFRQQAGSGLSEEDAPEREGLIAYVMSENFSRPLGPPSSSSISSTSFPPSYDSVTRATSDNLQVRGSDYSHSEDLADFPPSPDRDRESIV

inhibition at 4.9 µM [2] [%]	IC50 [2] [µM]	Structure (SMILES)	IC50 [1] [µM]
23.3	–	Cn1cc(-c2ccc(C(F)(F)F)cc2)c2ccc(S(=O)(=O)Nc3ncns3)cc21 [Example 57, 1-Methyl-N-(1,2,4-Thiadiazol-5-Yl)-3-(4-(Trifluoromethyl)Phenyl)-1H-Indole-6-Sulfonamide]	> 10
25.1	–	Cn1cc(-c2ccccc2OC(F)(F)F)c2ccc(S(=O)(=O)Nc3ncns3)cc21 [Example 58, 1-Methyl-N-(1,2,4-Thiadiazol-5-Yl)-3-(2-(Trifluoromethoxy)Phenyl)-1H-Indole-6-Sulfonamide]	> 10
36.2	–	Cn1cc(-c2cc3ccccc3o2)c2ccc(S(=O)(=O)Nc3ncns3)cc21 [Example 59, 3-(Benzofuran-2-Yl)-1-Methyl-N-(1,2,4-Thiadiazol-5-Yl)-1H-Indole-6-Sulfonamide]	> 10
24.7	–	COc1ccc(-c2cn(C)c3cc(S(=O)(=O)Nc4ncns4)ccc23)cc1C#N [Example 60, 3-(3-Cyano-4-Methoxyphenyl)-1-Methyl-N-(1,2,4-Thiadiazol-5-Yl)-1H-Indole-6-Sulfonamide]	> 10
37.2	–	COc1ccc(-c2cn(C)c3cc(S(=O)(=O)Nc4ncns4)ccc23)cn1 [Example 61, 3-(6-Methoxypyridin-3-Yl)-1-Methyl-N-(1,2,4-Thiadiazol-5-Yl)-1H-Indole-6-Sulfonamide]	> 10
–	2.68	Cn1nccc1-c1cc(Cl)ccc1-n1cnc2cc(S(=O)(=O)Nc3ncns3)ccc21 [Example 62, 1-(4-Chloro-2-(1-Methyl-1H-Pyrazol-5-Yl)Phenyl)-N-(1,2,4-Thiadiazol-5-Yl)-1H-Benzo[D]Imidazole-5-Sulfonamide]	> 10
–	1.13	Cn1nccc1-c1cc(C(F)(F)F)ccc1-n1cnc2cc(S(=O)(=O)Nc3ncns3)ccc21 [Example 63, 1-(2-(1-Methyl-1H-Pyrazol-5-Yl)-4-(Trifluoromethyl)Phenyl)-N-(1,2,4-Thiadiazol-5-Yl)-1H-Benzo[D]Imidazole-5-Sulfonamide]	> 10
–	0.269	Cn1cc(-c2ccc(C(F)(F)F)cc2C2=CCNCC2)c2ccc(S(=O)(=O)Nc3nccs3)cc21 [Example 65, 1-Methyl-3-(2-(1,2,3,6-Tetrahydropyridin-4-Yl)-4-(Trifluoromethyl)Phenyl)-N-(Thiazol-2-Yl)-1H-Indole-6-Sulfonamide 2,2,2-Trifluoroacetate]	> 10
–	1.41	Cn1cc(-c2ccc(C(F)(F)F)cc2C2=CCNCC2)c2ccc(S(=O)(=O)Nc3cscn3)cc21 [Example 66, 1-Methyl-3-(2-(1,2,3,6-Tetrahydropyridin-4-Yl)-4-(Trifluoromethyl)Phenyl)-N-(Thiazol-4-Yl)-1H-Indole-6-Sulfonamide]	> 10
